Data as given in US20110028554A1, “PHARMACEUTICAL COMPOSITIONS COMPRISING DIIODOTHYRONINE AND THEIR THERAPEUTIC USE” (UNIVERSITE JOSEPH FOURIER, priority 2007, published 2011).
“Also recorded” adds a separate entry of the source.

Legend:
[1] = Body weight, adipose and lean tissue weight and core temperature in ZDF rats; format: in vivo, Zucker Diabetic fatty (ZDF) rats; details: high dose 25 μg/100 g BW
Experimental: (§1) Adult male rat bred in the animal room facilities of Laboratory of Fundamental and Applied. Bioenergetics (Wistar strain) or purchased from Charles-River Laboratories, Domaine des oncins, L'ARBRESLE France [(genetically obese normoglycemic (Zucker or Fa/Fa) or diabetic (ZDF)] were caged individually in stainless steel hanging cages and maintained in a 22° C., 50±10% relative humidity and 12 h:12 h light:dark environment. All animals were fed ad libitum with a standard rat chow (Safe A04, Villemoisson, France) and tap water. Body mass and food intake were recorded twice/thrice a week and fresh food was provided, at the same time to ensure minimal disturbance to the animals' food, behavior.
(§2) Eight-week old rats (300 g±10 g) were anesthetized by simultaneous intraperitoneal injection of diazepam 4 mg/kg and ketamine 100 mg/kg. In order to maintain body temperature during the surgery (10 min), animals were placed on a warm blanket. After interscapular shaving, a small incision of 0.5 cm of the skin allows the subcutaneous implantation of a small pellet (containing rT3 or 3′,3-T2) with a 10-gauge precision trochar. The pellets, manufactured by Innovative Research of America (Sarasota, Fla., USA) are constituted of a biodegradable matrix that effectively and continuously release the active product in the animal.
(§3) 3-5 diiodothyronine (3-5 T2) or 3-3′diiodothyronine (3-3′ T2) were used at different doses (5, 0.5, or 0.1 mg/pellet) were implanted in order to provide a continuous and constant drug delivery over 60 days (which represents 25 μg, 2.5 μg or 0.5 μg/day/100 g BW).

[2] = Blood parameters (glucose, HbA1c, insulin, cholesterol, triglycerides) in ZDF rats; format: in vivo, Zucker Diabetic fatty (ZDF) rats; details: high dosage 25 μg/100 g BW
Experimental: (§4) Rats were genetically obese normoglycemic (Zucker or Fa/Fa), 10-11 week-old diabetic rats (ZDF) or genetic non-overweight diabetic (type 2 diabetes) rats (Goto-Kakizaki (GK) model).
(§5) The day of the study, after a fasted period overnight (18 h), blood samplings will be taken in awake rats from the tail vein.
The following biochemical parameters were analyzed: glycemia, insulinemia, HbA1c, TG and Cholesterol.
Insulin levels were determined with commercial kits (Linco Research).
(§6) Glucose and 3-hydroxybutyrate (3-HB) were measured, enzymatically and non esterified fatty acid (NEFA) by colorimetric assay (Wako Chemicals).
Triglycerides and cholesterol were measured by classical routine automate apparatus.

[3] = Body composition (adipose tissues, skeletal muscles, brown adipose tissue) of Wistar rats; format: in vivo
Excerpt: At the end of the experimental period, animals were sacrificed by decapitation, in order to avoid the well-known effects of general anesthetics on mitochondrial metabolism. Blood, samples were immediately collected and plasma was frozen for subsequent determination of serum metabolites and hormones. Liver, muscles and fat depots were quickly excised and weighed. Liver median lobe was rapidly freeze-clamped. Muscles (plantaris, soleus and gastrocnemius) were frozen in isopentane precooled in liquid nitrogen. Mesenteric fat consisted, of adipose tissue surrounding the gastro-intestinal tract from the gastro-oesophageal sphincter to the end of the rectum with special care taken in distinguishing and removing the pancreas. Retroperitoneal fat pad was taken as the distinct depot behind each kidney along the lumbar muscles. Epididymal fat consisted, of adipose tissue on top of the epididymis. For subcutaneous depot measurement, a rectangular piece of skin was taken on the right side of each animal from the median line of the abdomen between the spine and the right hip to the first rib. Interscapular brown adipose tissue was removed and dissected free from adjacent muscles and white adipose tissue. The heart ventricles, the right kidney and the spleen were also excised, weighed and frozen.

[4] = Blood glucose in Goto-Kakizaki (GK) rats; format: in vivo; details: low dosage 2.5 μg/100 g BW, 10 days, n=5, p<0.01
Experimental: as §4, §5, §6

liver mitochondria = test: Liver mitochondrial oxygen consumption (JO2) of treated Wistar rats; format: in vivo; details: for Liver mitochondrial respiratory rate, phosphorylating condition (state 3), vs placebo: all substrates
Experimental: All measurements were performed using mitochondria (1.0 mg mitochondrial protein/ml) incubated with various substrates: • GM: glutamate/malate (5 mM/2.5 mM) • SR: succinate/rotenone (5 mM/5 μM), • GMS: glutamate/malate/succinate (5 mM/2.5 mM/5 mM), • Palm: palmitoyl carnitine (55 μM), • Octa: octanoyl carnitine (100 μM), • TMPD/AsC: TMPD/ascorbate (0.5 mM/0.5 mM), and • TMPD/AsC/DNP: TMPD/ascorbate/DNP (0.5 mM/0.5 mM/75 μM).
JO2 was recorded in the presence of the substrate and following the addition of 1 mM ADP (adenosine diphosphate) (state 3).
The oligomycin was added to the mitochondrial suspension to determine the non-phosphorylating respiratory-rate (state 4).
The major part of the liver and the red part of each quadriceps were rinsed, and chopped into isolation medium (250 mM sucrose, 20 mM Tris-HCl and 1 mM EGTA-Tris, pH 7.4). Nuclei and cell debris were removed, by centrifugation at 800 g for 10 min. Mitochondria were then isolated from the supernatant by spinning twice at 8,000 g for 10 minutes. The mitochondrial pellet was resuspended in 0.5 ml of isolation buffer and kept on ice. Mitochondrial protein was measured by the bicinchoninic acid method (Pierce, Rockford, Ill.). The final mitochondrial suspensions were maintained on ice and were used for measurements of oxygen consumption rate and reactive oxygen species (ROS) production.
The rate of mitochondrial oxygen consumption (JO2) was measured at 30° C. in an incubation chamber with a Clark-type O2 electrode filled with 2 ml of incubation medium (125 mM KCl, 10 mM Pi-Tris, 20 mM Tris-HCl, 0.1 mM EGTA, pH 7.2). All measurements were performed using mitochondria (1.0 or 0.2 mg mitochondrial protein/ml for liver and skeletal muscle) incubated either with various substrates: glutamate/malate (5 mM/2.5 mM) and succinate (5 mM), alone or in combination, palmitoyl carnitine (55 μM) and octanoyl carnitine (100 μM). For each substrate, JO2 was recorded in the presence of the substrate alone (State 2) and following the addition of 1 mM ADP (state 3). Oligomycin (1.25 μg/mg protein) was added to the mitochondrial suspension to determine the non-phosphorylating respiratory rate (state 4). The incubation medium was constantly stirred with a built-in electromagnetic stirrer and bar flea. The efficiency of the mitochondrial oxidative phosphorylation was assessed by the state 3/state 4 ratio which measures the degree of control imposed on oxidation by phosphorylation (respiratory control ratio, RCR).

[5] = Growth rate (body weight) of Wistar rats with subcutaneous continuous-release pellet; format: in vivo
Experimental: as §1, §2, §3

N[C@@H](Cc1cc(I)c(Oc2ccc(O)cc2)c(I)c1)C(=O)O [3,5-T2, 3,5-diiodothyronine]
Fat mass gain vs placebo ([1]; 4 weeks): less
Lean body mass increase vs placebo ([1]; 4 weeks): higher
Core temperature vs placebo ([1]; 15 days): higher as compared to placebo
Plasmatic cholesterol at the end of the treatment vs placebo [2]: significantly lower
Plasmatic triglycerides at the end of the treatment vs placebo [2]: not different between the two groups
Glycated hemoglobin (HbA1c) ([2]; 4 weeks): significant decrease
Plasmatic insulin concentration ([2]; 4 weeks): maintenance of insulin concentration at a high level; also recorded: increasing plasmatic insulin concentration
Plasmatic glucose concentration ([2]; from week 1 over 4 weeks): dramatic decrease; also recorded: decreasing glucose concentration
Brown adipose tissue weight vs placebo ([3]; high dosage 25 μg/100 g BW): significantly increased
Fat masses, all localizations (retroperitoneal, epididymal, mesenteric, subcutaneous) vs placebo ([3]; high dosage 25 μg/100 g BW): significantly lower
Muscle mass / lean body mass vs placebo ([3]; high dosage 25 μg/100 g BW): not affected at all
Fat mass vs placebo ([3]; low dosage 2.5 μg/100 g BW): significantly decreased
Lean body mass vs placebo ([3]; low dosage 2.5 μg/100 g BW): not affected
Change in blood glucose concentration as compared to control animals [4]: −24±6%
Liver mitochondrial respiratory rate, non-phosphorylating (state 4, oligomycin), vs placebo (liver mitochondria; high dosage 25 μg/100 g BW): substantially higher in the low 3,5-T2 group only
Liver mitochondrial respiratory rate, phosphorylating condition (state 3), vs placebo (liver mitochondria; high dosage 25 μg/100 g BW): very significant increased respiratory rate
Liver mitochondrial respiratory rate, non-phosphorylating (state 4, oligomycin), vs placebo (liver mitochondria; low dosage 2.5 μg/100 g BW): substantially higher
Liver mitochondrial respiratory rate, phosphorylating condition (state 3), vs placebo (liver mitochondria; low dosage 2.5 μg/100 g BW): very significant increased respiratory rate
Growth rate (body weight gain) vs placebo ([5]; high dosage 25 μg/100 g BW): did not show similar weight gain; also recorded: a biphasic curve was observed with a weight gain between the 10th and the 15th day
Growth rate (body weight gain) vs placebo ([5]; low dosage 2.5 μg/100 g BW): the body mass did not change
